Laboratory results from US10844102B2, “Peptides, compositions, and methods for stimulating subcutaneous adipogenesis” (The Regents of the University of California, priority 2014, dated 2020).
Entries after “also recorded” stand apart in the source; their conditions may differ.

How the values were obtained:
adipogenesis = test: Adipogenic activity of peptides and peptide fragments, assay not specified; format: cell-based; conditions: assay not specified
Description: In the second approach, a series of truncations and alanine mutagenesis on peptide B were performed in order to identify the smallest active sequence. Fragments of peptide B were prepared and assayed for adipogenesis. First, fragments corresponding to the two halves of peptide B were prepared (KLKDENS (SEQ ID NO: 8) and SQLKSEVSK (SEQ ID NO: 13)).

[1] = system: rat mesenchymal stem cells; test: Assay 1: adipogenesis, Oil Red O staining (transdifferentiation of fibroblast lineages into adipocytes); format: cell-based; conditions: for adipogenesis quantified by Oil Red O staining, fold change relative to the negative control: Assay 1, three weeks
Description: Reagents: (1) 3-isobutyl-1-methylxanthine (IBMX) solution: 0.5M in DMSO; (2) Insulin Solution: 10 mg/mL recombinant human insulin; (3) Dexamethasone Solution in 10 mM in ethanol; (4) Oil Red O (0.36% in 60% isopropanol).
Adipogenesis Initiation Media: mesenchymal stem cell expansion media/0.5 mM IBMX/1 μM dexamethasone. Mesenchymal stem cell expansion media is commercially available from Millipore. The IBMX Solution was diluted 1:1000 and the Dexamethasone Solution was diluted 1:10,000 in expansion media containing antibiotics and antimycotics. The prepared media was stored at 4° C.
Adipogenesis Progression Media for positive control: mesenchymal stem cell expansion media/10 μg/mL insulin. The Insulin Solution was diluted 1:1000 in the expansion media and stored at 4° C.
Experimental Adipogenesis Progression Media: mesenchymal stem cell expansion media/1-100 μg/mL RHAMM antagonist peptides.
Adipogenesis Maintenance Media: mesenchymal stem cell expansion media containing antibiotics and antimycotics.
Negative Control Media: Dulbecco's Modified Eagle's Medium (DMEM)/10% normal calf serum.
Pre-adipocyte stem cells including bone marrow mesenchymal stem cells and fibroblasts were propagated using standard tissue culture methods. Cells were trypsinized to remove the cells from the substratum. The trypsin was neutralized and cells were counted using a hemocytometer. Cells were resuspended at 20,000 cells/mL in expansion media. 1 mL of cell suspension was plated per well of 48-well plate, with several wells left empty for blank well (blank control) staining.
Cells were incubated until they reached confluency. When cells were fully confluent, the expansion media was replaced with 0.5 mL of Adipogenesis Initiation Media. For negative controls (no insulin, no peptides), expansion media only was used at this step and for subsequent media changes. For all media changes, media was replaced as gently as possible to avoid disturbing the monolayer.
Cells were incubated in Adipogenesis Initiation Media for 72 hours at 37° C., 5% CO2. 0.5 mL media was then removed from each well, and replaced with 0.5 mL of either positive control or experimental Adipogenesis Progression Media per well. Cells were again incubated for 96 hours at 37° C., 5% CO2, after which time media was replaced every 48 hours with Adipogenesis Maintenance Media (0.5 mL of media was removed from each well and replaced with 0.5 mL Adipogenesis Maintenance Media per well). Media added to empty wells served as blank controls for blank well background staining. Cells were incubated in Adipogenesis Maintenance Medium for at least 96 hours at 37° C., 5% CO2 after which time media was replaced with Adipogenesis Maintenance Medium. Lipid droplets had appeared by the time Adipogenesis Maintenance Medium was initially added and continued to accumulate and increase in size for 7-14 days. Experiments were terminated between seven and fourteen days after the initial addition of Adipogenesis Maintenance Medium.
For quantification of Oil Red O staining, media was removed and cells were washed twice with PBS, using care to gently add the PBS. Cells were then fixed in 4% paraformaldehyde (0.5 mL/well) and incubated for 30 minutes. The fixation solution was then removed and wells were washed two times with 1 mL of phosphate buffered saline (PBS) and once with 1 mL Milli-Q water. 0.25 mL Oil Red O solution was added per well of 48-well plate, including to the wells lacking cells, but containing media. Cells were incubated for 15 minutes at room temperature. The staining solution was then removed and wells were washed two times with 1 mL of Milli-Q water and once with washing solution (63% isopropanol in water).
Adipogenesis was quantified using a spectrophotometer. 0.25 mL Dye Extraction Solution (isopropyl alcohol) was added per well, and the plate was set on an orbital shaker or platform rocker for 30 minutes. […]

[2] = system: rat mesenchymal stem cells; test: Assay 2: adipogenesis, Oil Red O staining (differentiation of pre-adipocytes into adipocytes); format: cell-based; conditions: for adipogenesis quantified by Oil Red O staining, fold change relative to the negative control: Assay 2, three weeks; for adipogenic activity in Assay 2: Assay 2, Oil Red O, concentration not given
Description: Reagents: The Dexamethasone, IBMX, Insulin, and Oil Red O Solutions were the same as described above for assay 1. Indomethacin Solution contained 10 mM indomethacin in methanol.
Adipogenesis Maintenance Media was prepared as described above.
Adipogenesis Induction Media: To prepare 501.5 mL of Adipogenesis Induction Media, 50 μL of the 10 mM stock Dexamethasone Solution, 500 μL of the 0.5 M IBMX stock solution, 500 μL of the 10 mg/ml stock Insulin Solution, 5 ml of a 10 mM stock Indomethacin Solution, and 5 mL of a 100× stock solution of penicillin and streptomycin were added to 490 mL of mesenchymal stem cell expansion media.
Pre-adipocyte stem cells, bone marrow mesenchymal stem cells or fibroblasts such as dermal reticular and papillary fibroblasts were propagated using standard tissue culture methods. Cells were trypsinized to remove cells from the substratum, the trypsin was neutralized, and cells were counted using a hemocytometer. Cells were resuspended at 20,000 cells/ml in DMEM containing 10% calf serum. 1 mL of cell suspension per well was plated in a 48-well plate, with several wells left empty for blank well (blank control) staining.
Cells were incubated for 2 days overnight and had reached confluency at this point. Media was removed from each well and replaced with 0.5 ml Adipogenesis Induction Media. For negative control (no insulin, no peptide) wells, expansion medium only was used at this step and for subsequent media changes. For all media changes, media was replaced as gently as possible to avoid disturbing the monolayer.
Cells were incubated for 72 hours at 37° C., 5% CO2. Media was removed and replaced with 0.5 ml of Adipogenesis Maintenance Media containing either RHAMM antagonist peptides (experimental group) or insulin (concentration as in the Adipogenesis Induction Media and used as a positive control). Cells were incubated for at least 96 hours in this media at 37° C., 5% CO2. Media was replaced every 48 hours and experiments were terminated between seven and fourteen days after addition of insulin or peptides.
Media was removed and Oil Red O staining was performed as described above for assay 1.
Assay 1 is an assay that promotes transdifferentiation of fibroblasts into adipocytes, whereas Assay 2 promotes differentiation of multi-potential mesenchymal progenitor cells into adipocytes. Immortalized rat bone marrow mesenchymal stem cells were used for both assays. These cells contain cells of different lineages, including fibroblasts, pre-adipocytes, pre-chondrocytes and pre-osteoblasts. Thus, Assay 1 was used to promote transdifferentiation of fibroblast lineages into adipocytes and Assay 2 was used to promote differentiation of the pre-adipocytes into adipocytes.
As described in Example 1 above, the priming stimulus for Assay 1 includes IBMX (3-isobutyl-1-methylxanthine) and dexamethasone, and then insulin as the final adipogenic stimulus. The priming stimulus for assay 2 includes IBMX, dexamethasone and indomethacin, and then insulin as the final adipogenic stimulus.
Adipogenesis was quantified by Oil Red O staining. The peptide was tested at concentrations of 5 and 50 μg/ml over a period of three weeks. Cells were plated in 48-well culture plates, and the purity of the peptides was >95%. All data are presented as the fold change relative to the negative control (Ctr(−))±standard error. The KSEVSK 6-mer (SEQ ID NO: 7) was used as a positive control.

[3] = earlier reports, background and U.S. Pat. No. 6,271,344; cited from earlier work
3T3L cells = test: Adiponectin ELISA on supernatant medium of primed 3T3L cells; format: cell-based, mouse; conditions: 10 μg/ml peptide, versus no insulin control
Description: 3T3L cells were cultured in T75 culture flasks, in expansion medium (Millipore Corporation), and stored in a 5% CO2 humidified incubator at 37° C. Media was changed every two days until the cells reached 80% confluency. Cells were subcultured in a 96 well plate with a seeding density of 3×10^4 cells per cm^2.
Once cells had just reached confluency, expansion media was replaced with 0.5 mL of Adipogenic Induction Media per well containing 5% serum that had been screened for an ability to maintain stem cells in an undifferentiated state (LifeTechnologies). Cells were incubated for 48 hours at 37° C., 5% CO2. The Adipogenic Induction Media contained DMEM (low glucose, Gibco) +5% serum (LifeSciences) with 0.5 mM IBMX solution, 1 μM Dexamethasone Solution, and 100 μM Indomethacin Solution (priming stimulus). After 48 hr the Adipogenic Induction media was replaced with new media containing 10 μg/ml insulin alone (positive control), or 10 μg/ml peptide (experimental conditions). Negative controls were DMEM +5% serum only. Plates were incubated for two days prior to adiponectin ELISA analyses. Peptides were added daily at 10 μg/ml throughout the remainder of the experiment.
Adiponectin present in the supernatant medium was measured using a mouse adiponectin ELISA (Novex, LifeTechnologies). Briefly, supernatant medium was collected and diluted 1:100. One hundred microliters of the diluted supernatant medium was added to each well of the ELISA plate and incubated for one hour at 37° C. Wells were washed three times with 1× wash buffer and then 100 μl of antibody was added to each well and incubated for one hour at 37° C. The wells were then washed and incubated with 100 μl detector antibody for 1 hr at 37° C. The wells were washed five times with wash buffer and 100 μl of substrate solution was added to each well and incubated for twenty minutes in the dark. The reaction was then stopped by the addition of 100 μl stop solution. Plates were read at 450 nm and concentrations of adiponectin were derived from a standard curve included in the ELISA plate.
Insulin and the KSEVSK peptide (SEQ ID NO: 7) served as positive controls. […] In FIG. 7, values marked by asterisks represent significant changes relative to the no insulin control (i.e., the negative control) using a two-tailed Student's T test, p<0.05.

mesenchymal stem cell = conditions: commercially available mesenchymal stem cell kit; as described in WO 2014/082042; cited from earlier work

For KLKDENSQ (listed as Homo sapiens), the adipogenic activity (adipogenesis) was “are adipogenic”, the “adipogenesis quantified by Oil Red O staining, fold change relative to the negative control” value ([1]; peptide 5 μg/ml) was “significant adipogenic effect” and the “adipogenesis quantified by Oil Red O staining, fold change relative to the negative control” value ([1]; peptide 50 μg/ml) was “significant adipogenic effect”. For the same molecule, the “adipogenesis quantified by Oil Red O staining, fold change relative to the negative control” value ([2]; peptide 5 μg/ml) was “significant adipogenic effect” and the “adipogenesis quantified by Oil Red O staining, fold change relative to the negative control” value ([2]; peptide 50 μg/ml) was “significant adipogenic effect”.

With LKSEVSK (listed as Homo sapiens) the adipogenic activity (adipogenesis) was “also found to be adipogenic”.

With KLQEELNKV (Ovis aries) the “adipogenesis quantified by Oil Red O staining, fold change relative to the negative control” value ([1]; peptide 5 μg/ml) was “significantly increased adipogenesis”, the “adipogenesis quantified by Oil Red O staining, fold change relative to the negative control” value ([1]; peptide 50 μg/ml) was “significantly increased adipogenesis” and the “adipogenesis quantified by Oil Red O staining, fold change relative to the negative control” value ([2]; peptide 5 μg/ml) was “only observed when a concentration of 50 μg/ml was used”. For the same molecule, the “adipogenesis quantified by Oil Red O staining, fold change relative to the negative control” value ([2]; peptide 50 μg/ml) was “significantly increased adipogenesis”.

With SQLKSEVSK (listed as Homo sapiens) the adipogenic activity (adipogenesis) was “found to be adipogenic”.

With KTRSHHV the adipogenic activity (adipogenesis) was “has adipogenic activity; also recorded: is adipogenic”, the “adipogenesis quantified by Oil Red O staining, fold change relative to the negative control” value ([1]; peptide 5 μg/ml) was “significant increase in adipogenesis” and the “adipogenic activity in Assay 2” value [2] was “not in assay 2”.

In the case of KLKDENS (listed as Homo sapiens), the adipogenic activity (adipogenesis) is reported as “did not exhibit adipogenic activity; also recorded: lack adipogenic activity”.

With “KTRSHHI (listed as Monodelphis domestica)” the “adipogenic activity in Assay 1” value ([1]; Assay 1, Oil Red O, concentration not given) was “ablated adipogenic activity” and the “adipogenic activity in Assay 2” value [2] was “ablated adipogenic activity”.

In the case of STMMSRSHKTRSCHH, the “binding to hyaluronan (HA)” value [3] is listed as “binds to HA”.

In the case of “KTSSHHV (listed as Arabidopsis thaliana)”, the “adipogenic activity in the adiponectin assay (adiponectin secretion)” value (3T3L cells) is reported as “lack an ability to promote adipogenesis”.

With STMMSRSHK the adipogenic activity (adipogenesis) was “found to have adipogenic activity”.

B1: 114 amino acid protein fragment: RHAMM carboxy-terminal sequence from mouse RHAMM produced as a recombinant protein (protein, listed as Mus musculus)
chain: LDAFEAEKQALLNEHGATQEQLNKIRDSYAQLLGHQNLKQKIKHVVKLKDENSQLKSEVSKLRSQLVKRKQNELRLQGELDKALGIRHFDPSKAFCHASKENFTPLKEGNPNCC
In the case of B1, the adipogenesis (mesenchymal stem cell) is listed as “promoted adipogenesis”.
